Here are results for 1 substance from patent US9719057B2, “Laundry detergent” (Liquid Vanity ApS, priority 2010, dated 2017).

Series [1] relates to Escherichia coli, ATCC 11229. Put plainly: Biocidal effect, dosage response and synergy (reduction in CFU after exposure to biocide). Particulars: 9 minutes at 30° C.; for Reduction obtained in E. coli: pH 6-6.5, factor of reduction in CFU. Format: cell-based. An excerpt:
(§1) The assay is based on the requirements to chemical disinfectants and antiseptic agent with regard to a reduction in fungus and bacteria of 4 and 5 log units respectively. These requirements are stated in DS/EN 1276:1997 and DS/EN 1275:2005, respectively.
(§2) The following microorganisms were chosen for this dosage response assays: Staphylococcus aureus, ATCC 6538, representing grampositive bacteria; Escherichia coli, ATCC 11229, representing gramnegative bacteria; and Candida albicans, ATCC 2091, representing yeast fungi.
(§3) The bacterial cultures were cultivated in the growth medium TSB (Tryptic Soy Bouillon) for 24 h at 37° C. before use. Colony forming units (CFU) were determined by plating Tryptic Soy Agar (TSA).
(§4) The exposure to biocide was performed at pH 6-6.5, which was obtained by addition of 100 mM potassium phosphate buffer. To test tubes with 8 mL sterile 100 mM phosphate buffer were added 1 mL test solution (i.e. biocide solution) and 1 mL stock culture. After thorough mixing the assay mixtures were exposed to heating in water bath at 30° C. for 9 minutes. After exposure the test tubes were immediately removed from the water bath and the surviving microorganisms were determined by plating.
(§5) Reference samples were prepared by adding 1 mL sterile water instead of 1 mL test solution.
(§6) From appropriate dilutions of starting material (mixture of biocide solution, stock culture and buffer) was taken 0.1 mL onto agar plates, and the material was spread with Drigalski spatulas. The plates were incubated at 37° C. 1 day for bacteria and 2 days for yeast.
(§7) For determining CFU of the bacteria after exposure, with and without biocide, was used incubation on TSA for 24 h at 37° C. For determining CFU of Candida albicans before and after exposure was used incubation on MEA for 48 h at 37° C.
(§8) Where a large reduction in organisms was expected (test concentrations of 700 and 200 ppm) 1 mL and 0.1 mL solution, respectively, were mixed with 100 ml sterile water and filtered through a 47 mm Millipore EZ-Pak® membrane filter, mesh 0.22 μm. The filter was rinsed with 100 mL sterile water, and thereafter placed directly on the agar plate. The mixing in water and subsequent rinsing ensures that the biocide is heavily diluted and thus will not have any effect after plating. For dilutions of 100× and more, regular plating were used, as the biocide at these concentrations is considered to not provide any further reduction in the microorganisms during plating on agar.
(§9) Plates with between 20 and 500 CFU were chosen for counting. Number of CFU (colony forming units) per g or mL sample was calculated by multiplying the number of colonies per plate with the dilution and further by 10, as only 0.1 mL was used on each plate.
(§10) After incubation, CFU was determined and reduction in organisms was calculated. All tests were performed in triplicate.
(§11) The optimal biocides, Bardap-26 and Akacid Forte, found in Example 4A, were further assayed for synergistically effect. Bardap-26 and Akacid Forte was mixed in a 50:50 ratio, and the applied concentrations can be seen from Table 5. The methods and solutions were otherwise as described in example 4A herein.

In series [2] the test system is Staphylococcus aureus, ATCC 6538. The description is as above. Particulars: 9 minutes at 30° C.; for Reduction obtained in Staphylococcus Aureus: pH 6-6.5, factor of reduction in CFU. In kind it is cell-based.
Text: as §1, §2, §3, §4, §5, §6, §7, §8, §9, §10, §11

Series [3] concerns Candida albicans, ATCC 2091. Described as above. Format: cell-based. The note with it: 9 minutes at 30° C.; for Reduction obtained in Candida Albicans: pH 6-6.5, factor of reduction in CFU.
Text: as §1, §2
Candida albicans was cultivated on malt extract agar (MEA) for 24 h at 37° C. before use. Then the yeast cells were harvested in 0.9% saline by use of a drigalski spatula. CFU were determined by plating on MEA.
as §4, §5, §6, §7, §8, §9, §10, §11

The nature of series [4]: Critical micelle concentration by Sudan Black B absorbance at 600 nm. In kind it is physicochemical. The note with it: data not shown. As for the experimental part: The critical micelle concentration is measured using Sudan Black B dissolved in the test solutions at different concentrations. Sudan Black B is dissolvable in micelles, only. A difference in the absorbance measured is thus a valid measure of the critical micelle concentration in the test solutions. Absorbance was measured using a Shimadzu UV-1800 spectrofotometer and the absorbance is measured at 600 nm. Dilutions were made in water and Sudan Black B by adding first water, then Sudan Black B and at last the test solutions to 4 ml cuvettes. The dilutions were then stirred and left for at least 6 hours at room temperature. Then the absorbance was measured.

[5] abbreviates: 120 ppm active (total for mixtures).
The mark [6] stands for this setting: test concentrations 40-700 ppm active.

A value given as a limit tells only on which side of the number the result lay.

As to “N,N-didecyl-N-methyl-poly(oxyethyl) ammonium propionate [Bardap-26]”, the “Reduction obtained in E. coli” value was ~10^4 in series [1] (40 ppm active); ~10^4 in series [1] (80 ppm active); 10^4-10^5 in series [1] (setting [5]); >10^7 in series [1] (160 ppm active); >10^7 in series [1] (200 ppm active); >10^7 in series [1] (700 ppm active). The “Effect on E. coli as summarised in words” value in series [1] (setting [6]) was “good effect”. Also, the “Reduction obtained in Staphylococcus Aureus” value in series [2] (40 ppm active) was ~10^2; in series [2] (80 ppm active), 10^2-10^3; in series [2] (setting [5]), 10^2-10^3; in series [2] (160 ppm active), >10^7; in series [2] (200 ppm active) it was >10^7; in series [2] (700 ppm active), >10^7. The “Effect on Staphylococcus Aureus as summarised in words” value in series [2] (setting [6]) is reported as “good effect”. Moreover, the “Reduction obtained in Candida Albicans” value was “No reduction” in series [3] (40 ppm active); 10^2-10^3 in series [3] (80 ppm active); ~10^3 in series [3] (setting [5]); ~10^4 in series [3] (160 ppm active); ~10^4 in series [3] (200 ppm active); 10^4-10^5 in series [3] (700 ppm active). In addition, in series [3] (concentration not given), the “Reduction of Candida Albicans” value is given as 10^4. The “Effect on Candida Albicans as summarised in words” value in series [3] (setting [6]) was “good effect”. Also, the CMC in series [4] lay within 0.7 to 1.0 mmol/L.
